Test results reported in US9649314B2, “Pyrimido[4,5-b]quinoline-4,5(3H,10H)-diones” (NOVARTIS AG, priority 2012, dated 2017).
Read-outs that look alike come from different tables or passages of the source.

Tested on: CFTR-Y122X
Assay: CFTR-Y122X assay (dual reporter isogenic Hek293 cell lines, Renilla luminescence readthrough)
Assay type: cell-based
Conditions: Homo sapiens, HEK293
Method in brief: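 Stable isogenic HEK dual-reporter line (eGFP–CFTR Y122X TGA PTC–myc–Renilla); 2000 cells/well, 24 h, then compound (10 μM; tested up to 100 μM) 24 h at 37 °C. Renilla luminescence normalised to neutral (0%) and 14 mM paromomycin (100%); wildtype construct counterscreen.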

[1] = nonsense mutation suppression, 100% = 14 mM paromomycin, 24 h incubation, tested up to 100 μM, read-out: Amax [%]
[2] = nonsense mutation suppression, 24 h incubation
[3] = at the above dose ranges (up to 100 μM), read-out: suppression, % of paromomycin reference activity

SMILES: Cn1c2ccccc2c(=O)c2c(=O)n(C3CCCCC3)c(-c3cccc(Br)c3)nc21 [Example 2.30, 2-(3-bromophenyl)-3-cyclohexyl-10-methylpyrimido[4,5-b]quinoline-4,5(3H,10H)-dione]
- Emax [1]: 71%
- AC50 [2]: 22.2 µM

SMILES: CCCc1nc2c(c(=O)c3ccccc3n2C)c(=O)n1C1CCCCC1 [Example 2.24, 3-cyclohexyl-10-methyl-2-propylpyrimido[4,5-b]quinoline-4,5(3H,10H)-dione]
- Emax [1]: 170%
- AC50 [2]: 2.3 µM

SMILES: CCCc1nc2c(c(=O)c3ccccc3n2C)c(=O)n1-c1ccccc1 [Example 1.30, 10-methyl-3-phenyl-2-propylpyrimido[4,5-b]quinoline-4,5(3H,10H)-dione]
- Emax [1]: 262%
- AC50 [2]: 6.5 µM

SMILES: Cn1c2ccccc2c(=O)c2c(=O)n(C3CCCC3)c(C(C)(C)C)nc21 [Example 2.6, 2-(tert-butyl)-3-cyclopentyl-10-methylpyrimido[4,5-b]quinoline-4,5(3H,10H)-dione]
- Emax at 25 µM (measured at 25 μM compound concentration (footnote a), read-out: Amax [%]: % nonsense mutation suppression relative to paromomycin reference activity): 127%

SMILES: Cn1c2ccccc2c(=O)c2c(=O)n(C3CCCC3)c(-c3ccc(C(C)(C)C)cc3)nc21 [2-(4-(tert-butyl)phenyl)-3-cyclopentyl-10-methylpyrimido[4,5-b]quinoline-4,5(3H,10H)-dione]
- Emax [3]: < 5%

SMILES: CCCCCCc1nc2c(c(=O)c3ccccc3n2C)c(=O)n1-c1ccccc1 [Example 1.47, 2-hexyl-10-methyl-3-phenylpyrimido[4,5-b]quinoline-4,5(3H,10H)-dione]
- Emax [1]: 210%
- AC50 [2]: 11.3 µM

SMILES: CC(C)c1nc2c(c(=O)c3ccccc3n2C)c(=O)n1C1CCCOC1 (centres unmarked) [Example 1.45, 2-isopropyl-10-methyl-3-(tetrahydro-2H-pyran-3-yl)pyrimido[4,5-b]quinoline-4,5(3H,10H)-dione]
- Emax [1]: 389%
- AC50 [2]: 4.7 µM

SMILES: Cn1c2ccccc2c(=O)c2c(=O)n(C3CCCCCC3)c(-c3cccc([N+](=O)[O-])c3)nc21 [Example 2.46, 3-cycloheptyl-10-methyl-2-(3-nitrophenyl)pyrimido[4,5-b]quinoline-4,5(3H,10H)-dione]
- Emax [1]: 12%
- AC50 [2]: 4.2 µM

SMILES: Cn1c2ccccc2c(=O)c2c(=O)n(C3CCCCCC3)c(-c3ccc(Cl)cc3)nc21 [2-(4-chlorophenyl)-3-cycloheptyl-10-methylpyrimido[4,5-b]quinoline-4,5(3H,10H)-dione]
- Emax [3]: < 5%

SMILES: COC1CC(c2nc3c(c(=O)c4ccccc4n3C)c(=O)n2-c2ccccc2)C1 (centres unmarked) [Example 1.8, 2-(3-methoxycyclobutyl)-10-methyl-3-phenylpyrimido[4,5-b]quinoline-4,5(3H,10H)-dione]
- Emax [1]: 18%
- AC50 [2]: 11.8 µM

SMILES: CCSc1nc2[nH]c3ccccc3c(=O)c2c(=O)n1-c1ccccc1 [Example 3.1, 2-(ethylthio)-3-phenylpyrimido[4,5-b]quinoline-4,5(3H,10H)-dione]
- Emax [1]: 65%
- AC50 [2]: 5.8 µM

SMILES: CN(C)c1nc2c(c(=O)c3ccccc3n2C)c(=O)n1-c1ccccc1 [Example 3.3, 2-(dimethylamino)-10-methyl-3-phenylpyrimido[4,5-b]quinoline-4,5(3H,10H)-dione]
- Emax [1]: 18%
- AC50 [2]: 3.5 µM

SMILES: Cn1c2ccccc2c(=O)c2c(=O)n(C3CCCC3)c(-c3ccccc3F)nc21 [Example 2.32, 3-cyclopentyl-2-(2-fluorophenyl)-10-methylpyrimido[4,5-b]quinoline-4,5(3H,10H)-dione]
- Emax at 100 µM (measured at 100 μM compound concentration (footnote d), read-out: Amax [%]: % nonsense mutation suppression relative to paromomycin reference activity): 43%

SMILES: Cn1c2ccccc2c(=O)c2c(=O)n(-c3ccccc3)c(C3CC(C)(C)C3)nc21 [Example 1.7, 2-(3,3-dimethylcyclobutyl)-10-methyl-3-phenylpyrimido[4,5-b]quinoline-4,5(3H,10H)-dione]
- Emax [1]: 7%
- AC50 [2]: 3.8 µM

SMILES: CCCn1c2ccccc2c(=O)c2c(=O)n(-c3ccccc3)c(C(C)C)nc21 [Example 1.44, 2-isopropyl-3-phenyl-10-propylpyrimido[4,5-b]quinoline-4,5(3H,10H)-dione]
- Emax [1]: 118%
- AC50 [2]: 15.2 µM
